The test system of one assay is CT-26 cells. Kind of assay: Tumor cell proliferation inhibition in BALB/c mouse model of subcutaneously transplanted CT-26 cells, alone or combined with BioXcell-mPD-L1. It is filed as in vivo. To be noted: for Tumor volume: average ± SEM, small molecules 75 mg/kg PO twice a day, BioXcell-mPD-L1 10 mg/kg IP twice a week. How it is done: The following table lists the animal grouping and dosing regimen of embodiment 1, the positive reference compound LY2157299 and the BioXcell PD-L1 monoclonal antibody (BioXcell-mPD-L1), which are used alone or in combination in vivo.
Mouse colon cancer CT-26 cells were cultured in vitro in a single layer, and culture conditions is RPMI1640 medium (Medium No. 1640, Roswell Parker Memorial Institute) supplemented with 10% fetal bovine serum at 37° C., 5% CO2. Passage was routinely digested with trypsin-EDTA twice a week. When the cell saturation is 80%-90%, the cells are collected, counted, and inoculated.
0.1 mL (1×10^5) CT-26 cells were subcutaneously inoculated into the right back of each BALB/c mouse. The mice were administered in groups according to the body weight of the mice on the second day after cell inoculation.
The experimental indicator is to investigate whether tumor growth is inhibited, delayed or cured. Tumor diameters were measured with Vernier calipers twice a week. The tumor volume is calculated as: V=0.5a×b^2, and a and b represent the long and short diameters of the tumor, respectively.
The antitumor effect of the compound was evaluated by TGI (%) or tumor proliferation rate T/C (%). TGI (%) reflects the tumor growth inhibition rate. Calculation of TGI (%): TGI (%)=[(1-(mean tumor volume at the end of administration of a treatment group—mean tumor volume at the start of administration of the treatment group))/(mean tumor volume at the end of treatment of the solvent control group)—mean tumor volume at the start of treatment of the solvent control group)]×100%.
Tumor proliferation rate T/C (%): The formula is as follows: T/C %=T/C×100% (T: treatment group; C: negative control group).
Tumor weights were measured after the end of the experiment and the percentage of T/Cweight was calculated. Tweight and Cweight represent the tumor weights of the drug-administered group and the vehicle control group, respectively.
Statistical analysis, including mean and standard error (SEM) of tumor volume at each time point for each group (see Table 4 for specific data). […] T-test was used for comparison between the two groups, and one-way analysis of variance was used for comparison between three or more groups. If there was a significant difference in F values, the Gass-Howell method was used to test. If there is no significant difference in F values, the Dunnet (2-sided) method is used for analysis. All data analysis was performed with SPSS 17.0. A significant difference was considered at p<0.05.

Assay [1] concerns mouse breast cancer 4T1 cells. Kind of assay: Tumor cell metastasis inhibition in BALB/c mouse orthotopic transplantation model of mouse breast cancer 4T1 cells. Type of assay: in vivo. To be noted: 75 mg/kg PO once a day × 32. How it is done:
Fluorescently labeled mouse breast cancer 4T1-Luc cells were expanded in vitro. Before the cells were collected, the mice were anesthetized with intraperitoneal injection of sodium pentobarbital. After anesthetized mice were fixed, the abdominal skin was disinfected with 70% alcohol. 100 uL of phosphate buffer (containing 0.5×10^6 4T1-luc2 cells) was inoculated into the left side of the fourth pair of abdominal mammary fat pads in mice, and the incision was sutured to disinfect the skin. The animals are kept warm with a warm blanket, observed until they wake up and put back in their cages. 0.1 mg/kg buprenorphine for pain relief was subcutaneously injected 30 min before surgery and 6 hours after surgery.
On the third day after modeling, the animals were subjected to bioluminescence detection by infrared data imaging, randomly grouped according to the fluorescence values, and administered according to the following experimental protocol, see Table 5.
To observe the inhibitory effect of embodiment 1 on tumor growth and metastasis, the experimental endpoint was designed to be 30-35 days after administration, with reference to historical data of the model. At the end of the experiment, the in situ tumor and various organ tissues were dissected, the tumor was weighed, and the fluorescence intensity of each organ was detected by IVIS fluorescence. Growth inhibition of orthotopic tumors can be compared by the weight of the in situ tumor in the experimental endpoint, and the inhibition curve is generated from the tumor volume measurement data twice a week during the experiment. The inhibition of tumor metastasis was determined by the presence or absence of fluorescence detection of each organ and the analysis of relative fluorescence intensity.
At the end of the experiment, the tumor weight will be detected and the relative tumor growth rate T/C (%) will be calculated; the tumor volume is calculated as: V=0.5a×b^2, and a and b represent the long and short diameters of the tumor, respectively. At the same time, the lung, liver, spleen, kidney, intestine and left upper limb were stripped, and fluorescence was detected to determine whether there was metastasis and metastasis intensity and ratio.
The antitumor effect of the compound was evaluated by the tumor growth inhibition rate TGI (%) or the relative tumor growth rate T/C (%).
Calculation of TGI (%): TGI (%)=[(1−mean tumor volume at the end of administration of a treatment group−mean tumor volume at the start of administration of the treatment group))/(mean tumor volume at the end of treatment of the solvent control group−mean tumor volume at the start of administration of the solvent control group)]×100%.
Relative tumor growth rate T/C (%) calculation: T/C(%)=Tt(treatment group)/Ct(control group)×100%, Tt is the average tumor volume at a certain measurement, and Ct takes the same day data.
The experimental results were statistically analyzed using one-way ANOVA. If there is a significant difference in F values, multiple comparisons should be made after ANOVA analysis. All data in this experiment were analyzed using SPSS 17.0. A significant difference was considered at p<0.05.
At the end of the experiment, each organ tissue was peeled off, and fluorescence imaging and fluorescence intensity value recording were measured by IVIS for 40 sec exposure within 8 min. The fluorescence imaging results of the tested tissues of the 10 animals excised by the maximum and minimum values are shown in Table 6.
According to the experimental end point, the fluorescence intensity of each group of organs was normalized by the control group, and the relative fluorescence intensity ratio of each group of organs was obtained. The ratio reflects the level of metastatic intensity on the corresponding organs.

The test system of the next assay is liver cancer. To be noted: phase 2, patients with liver cancer; cited from earlier work.
Where [2] appears, read: animals with metastasis/animals in group.
Setting [3] is: average organ fluorescence relative to control group.

“And” between values parts separate entries of the source, which are not always exact repeats. Equal entries are not always repeated.

Turning to `Cc1cccc(-c2nn3c(c2-c2ccnc4ccc(C(N)=O)cc24)CCC3)n1` [LY2157299, Galunisertib, reference compound], the Tumor volume in the assay on CT-26 cells (day 10 of administration) is listed as 98 ± 14 mm^3. The Tumor volume in the assay with CT-26 cells (day 13 of administration) stood at 446 ± 104 mm^3. Also, in the assay on CT-26 cells (day 15 of administration), the Tumor volume came out at 840 ± 177 mm^3. Further, in the assay with CT-26 cells (day 17 of administration), the Tumor volume is recorded as 1256 ± 257 mm^3. For the same compound, in the assay with CT-26 cells (day 20 of administration), the Tumor volume is 2186 mm^3 and 2186 ± 435 mm^3. Further, in the assay with CT-26 cells (twenty days after start of administration, 75 mg/kg PO and/or 10 mg/kg IP), the “Tumor proliferation rate T/C” value worked out at 85%. The “Antitumor effect compared with the solvent control group” value with CT-26 cells (twenty days after start of administration, 75 mg/kg and/or 10 mg/kg) is listed as “no significant antitumor effect”. Moreover, in assay [1] (setting [2]), the “Metastasis rate, intestine” value is recorded as 60%; the “Metastasis rate, kidney” value is reported as 30%; the “Metastasis rate, liver” value is listed as 80%; the “Metastasis rate, lung” value is reported as 100%. For the same compound, in assay [1] (setting [2]), the “Metastasis rate, spleen” value is 10% and the “Metastasis rate, upper limb” value is listed as 70%. Moreover, in assay [1] (setting [3]), the “Metastasis level, intestine” value is 41%; the “Metastasis level, kidney” value is listed as 121%; the “Metastasis level, liver” value turned out to be 31%; the “Metastasis level, lung” value worked out at 20%. Moreover, in assay [1] (setting [3]), the “Metastasis level, spleen” value came to 4% and the “Metastasis level, upper limb” value is given as 54%. For the same compound, the “Patients with a decrease in serum alpha-fetoprotein (AFP) level of more than 20%” value in the assay on liver cancer was “about 23%”.

The values are drawn from patent US10548883B2, “Benzotriazole-derived α and β-unsaturated amide compound used as TGF-β RI inhibitor” (GENFLEET THERAPEUTICS (SHANGHAI) INC., priority 2016, dated 2020).
